Reference: ChEMBL document CHEMBL1152941, “Isocoumarin glucosides from the scale insect fungus Torrubiella tenuis BCC 12732” (J Nat Prod, 2009)
≈ marks a conversion by molar mass, not a printed value. Calls of active or inactive are those of the source. The rule behind the calls is not given here.

How the values were obtained:
[1] = tested on: Human alphaherpesvirus 1; test: Antiviral activity against HSV1 by green fluorescent protein microplate assay; assay type: functional, organism-based
[2] = tested on: Mycobacterium tuberculosis; test: Antitubercular activity against Mycobacterium tuberculosis H37Ra by green fluorescent protein microplate assay; assay type: functional
[3] = tested on: NCI-H187; test: Cytotoxicity against human NCI-H187 cells by resazurin microplate assay; assay type: functional, cell-based
[4] = tested on: Plasmodium falciparum; test: Antimalarial activity against Plasmodium falciparum K1 by microculture radioisotope technique; assay type: functional, organism-based
[5] = tested on: KB; test: Cytotoxicity against human KB cells by resazurin microplate assay; assay type: functional, cell-based
[6] = tested on: MCF7; test: Cytotoxicity against human MCF7 cells by resazurin microplate assay; assay type: functional, cell-based
[7] = tested on: Vero; test: Cytotoxicity against african green monkey Vero cells by green fluorescent protein microplate assay; assay type: cell-based; conditions: Chlorocebus sabaeus
[8] = Human alphaherpesvirus 1, read-out: IC50

Structure (SMILES)	MIC [2]	Activity [3]	Activity [4]	IC50 [1]	Activity [5]	further results
Nc1nc2c(ncn2COCCO)c(=O)[nH]1 [ACYCLOVIR]						IC50 [1, 8]: 6.86 µg/mL (≈ 30.5 µM)
O=c1oc(CO)cc2cc(O)cc(O)c12	25 µg/mL (≈ 120 µM)	inactive				IC50 [1, 8]: 50 µg/mL (≈ 240 µM)
CO[C@H]1[C@H](O)[C@@H](O)[C@H](OCc2cc3cc(O)cc(O)c3c(=O)o2)O[C@@H]1CO	inactive	inactive	inactive	Not Active	inactive	
NNC(=O)c1ccncc1 [ISONIAZID]	0.023 µg/mL (≈ 0.168 µM)					
COc1cccc2c1C(=O)c1c(O)c3c(c(O)c1C2=O)C[C@@](O)(C(=O)CO)C[C@@H]3O[C@H]1C[C@H](N)[C@H](O)[C@H](C)O1 [DOXORUBICIN]						IC50 [5]: 0.144 µg/mL (≈ 0.265 µM); IC50 [6]: 0.899 µg/mL (≈ 1.65 µM); IC50 [3]: 0.058 µg/mL (≈ 0.107 µM)
Cc1cc2cc(O)cc(O)c2c(=O)o1	inactive	inactive	inactive	Not Active	inactive	
C[C@H]1[C@@H](O)O[C@@H]2O[C@@]3(C)CC[C@H]4[C@H](C)CC[C@@H]1[C@@]24OO3 [ARTENIMOL]						IC50 [4]: 0.0011 µg/mL (≈ 0.00387 µM)
CO[C@H]1[C@H](O)[C@@H](O)[C@H](Oc2cc(O)c3c(=O)oc(CO)cc3c2)O[C@@H]1CO	inactive	inactive	inactive	Not Active	inactive	Activity [6]: inactive
CO[C@H]1[C@H](O)[C@@H](O)[C@H](Oc2cc(O)c3c(=O)oc(C)cc3c2)O[C@@H]1CO	inactive	inactive	inactive	Not Active	inactive	
Cc1c2ccncc2c(C)c2c1[nH]c1ccccc12 [ELLIPTECINE]						IC50 [7]: 1.16 µg/mL (≈ 4.71 µM)
